Where “and” joins values, the source holds several entries; their conditions need not be identical. Identical values can stand only once. Inconclusive results and toxic doses are left out. No stated cut-off is given here; in the data, active means T/C of 150% or more; inactive means T/C below 125%.
Tested on: L1210 leukemia ip in BDF1 mice, survival T/C
Test: NCI In Vivo Anticancer Drug Screen. Data for tumor model L1210 Leukemia (intraperitoneal) in B6D2F1 (BDF1) mice
Settings: endpoint: mean survival time, higher = longer survival
Summary of the method: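 Survival endpoint. Drug-treated group vs vehicle group, expressed as T divided by C. Tumor passaged by transplantation.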

[1] = dose: 100.0 mg/kg/injection, schedule: Q01DX009 (ip), vehicle: Klucel (hydroxypropylcellulose) (HPC)
[2] = dose: 200.0 mg/kg/injection, schedule: Q01DX009 (ip), vehicle: Klucel (hydroxypropylcellulose) (HPC)
[3] = dose: 400.0 mg/kg/injection, schedule: Q01DX009 (ip), vehicle: Klucel (hydroxypropylcellulose) (HPC)
[4] = dose: 100.0 mg/kg/injection, schedule: Q04DX003 (ip), vehicle: Klucel (hydroxypropylcellulose) (HPC)
[5] = dose: 100.0 mg/kg/injection, schedule: Q04DX003 (ip), vehicle: saline with Tween-80
[6] = dose: 200.0 mg/kg/injection, schedule: Q04DX003 (ip), vehicle: saline with Tween-80
[7] = dose: 400.0 mg/kg/injection, schedule: Q04DX003 (ip), vehicle: saline with Tween-80
[8] = dose: 100.0 mg/kg/injection, schedule: Q01DX009 (ip), vehicle: saline
[9] = dose: 100.0 mg/kg/injection, schedule: Q04DX003 (ip), vehicle: saline
[10] = dose: 200.0 mg/kg/injection, schedule: Q01DX009 (ip), vehicle: saline
[11] = dose: 200.0 mg/kg/injection, schedule: Q04DX003 (ip), vehicle: saline
[12] = dose: 400.0 mg/kg/injection, schedule: Q01DX009 (ip), vehicle: saline
[13] = dose: 400.0 mg/kg/injection, schedule: Q04DX003 (ip), vehicle: saline
[14] = dose: 100.0 mg/kg/injection, schedule: Q01DX009 (ip), vehicle: saline with Tween-80
[15] = dose: 200.0 mg/kg/injection, schedule: Q01DX009 (ip), vehicle: saline with Tween-80
[16] = dose: 400.0 mg/kg/injection, schedule: Q01DX009 (ip), vehicle: saline with Tween-80
[17] = dose: 100.0 mg/kg/injection, schedule: Q01DX001 (ip), vehicle: carboxymethylcellulose (CMC)
[18] = dose: 200.0 mg/kg/injection, schedule: Q01DX001 (ip), vehicle: carboxymethylcellulose (CMC)
[19] = dose: 400.0 mg/kg/injection, schedule: Q01DX001 (ip), vehicle: carboxymethylcellulose (CMC)
[20] = dose: 200.0 mg/kg/injection, schedule: Q04DX003 (ip), vehicle: Klucel (hydroxypropylcellulose) (HPC)
[21] = dose: 400.0 mg/kg/injection, schedule: Q04DX003 (ip), vehicle: Klucel (hydroxypropylcellulose) (HPC)
[22] = dose: 50.0 mg/kg/injection, schedule: Q01DX001 (ip), vehicle: carboxymethylcellulose (CMC)

Measured: T/C

O=C(O)c1sc(C(=O)O)c(O)c1O
inactive: dose: 12.5 mg/kg/injection, schedule: Q01DX001 (ip), vehicle: saline with Tween-80 111 % of control | dose: 25.0 mg/kg/injection, schedule: Q01DX001 (ip), vehicle: saline with Tween-80 103 % of control | dose: 50.0 mg/kg/injection, schedule: Q01DX001 (ip), vehicle: saline with Tween-80 100 % of control

C/C(=C/c1ccc([N+](=O)[O-])cc1)C(=O)O
inactive: [1] 96 % of control | [2] 115 % of control | [3] 107 % of control

CCCCN1CC1CC (stereo unspecified)
inactive: dose: 25.0 mg/kg/injection, schedule: Q04DX003 (ip), vehicle: Klucel (hydroxypropylcellulose) (HPC) 105 % of control | dose: 50.0 mg/kg/injection, schedule: Q04DX003 (ip), vehicle: Klucel (hydroxypropylcellulose) (HPC) 95 % of control | dose: 100.0 mg/kg/injection, schedule: Q01DX001 (ip), vehicle: Klucel (hydroxypropylcellulose) (HPC) 108 % of control | [4] 103 % of control

CN(C)c1cc2c(cc1[N+](=O)[O-])-c1ccccc1C2=O
inactive: [5] 100 % of control | [6] 100 % of control | [7] 100 % of control

CC(C)(C)c1cccc(C(C)(C)C)c1OC(=O)NS(=O)(=O)c1ccccc1
inactive: dose: 12.5 mg/kg/injection, schedule: Q01DX009 (ip), vehicle: acetone 98 % of control | dose: 25.0 mg/kg/injection, schedule: Q01DX009 (ip), vehicle: acetone 94 % of control | dose: 50.0 mg/kg/injection, schedule: Q01DX009 (ip), vehicle: acetone 91 % of control | dose: 75.0 mg/kg/injection, schedule: Q01DX009 (ip), vehicle: Klucel (hydroxypropylcellulose) (HPC) 96 % of control | dose: 115.0 mg/kg/injection, schedule: Q01DX009 (ip), vehicle: Klucel (hydroxypropylcellulose) (HPC) 98 % of control

COC(=O)OCCOC(=O)OC
inactive: [8] 105 % of control | [9] 100 % of control | [10] 101 % of control | [11] 102 % of control | [12] 100 % of control | [13] 103 % of control

CC(=O)[O][Hg][c]1c(C)c(C)cc(C)c1C
inactive: dose: 6.25 mg/kg/injection, schedule: Q04DX003 (ip), vehicle: saline with Tween-80 93 % of control | dose: 12.5 mg/kg/injection, schedule: Q04DX003 (ip), vehicle: saline with Tween-80 87 % of control | dose: 25.0 mg/kg/injection, schedule: Q04DX003 (ip), vehicle: saline with Tween-80 95 % of control

CCC(C)(S(=O)(=O)CC)S(=O)(=O)CC
inactive: [14] 105 % of control | [15] 102 % of control | [16] 100 % of control

CCNCC(=O)O
inactive: dose: 100.0 mg/kg/injection, schedule: Q04DX002 (ip), vehicle: saline 96 % of control | dose: 200.0 mg/kg/injection, schedule: Q04DX002 (ip), vehicle: saline 101 % of control | dose: 400.0 mg/kg/injection, schedule: Q04DX002 (ip), vehicle: saline 104 % of control

CC(=O)c1ccc2c(c1)C(=O)c1ccccc1-2
inactive: [17] 92 % of control | [18] 93 % of control | [19] 93 % of control

CC1(C)C/C(=C\c2ccc(Cl)cc2)C(=O)c2ccccc21
inactive: [1] 97 % of control | [4] 95 % of control | [2] 93 % of control | [20] 92 % of control | [3] 97 % of control | [21] 92 % of control

CC(C)Oc1ccc2c(c1)N(CCC1CCCCN1)c1ccccc1S2 (stereo unspecified)
inactive: dose: 12.5 mg/kg/injection, schedule: Q01DX009 (ip), vehicle: Klucel (hydroxypropylcellulose) (HPC) 101 % of control | dose: 25.0 mg/kg/injection, schedule: Q01DX009 (ip), vehicle: Klucel (hydroxypropylcellulose) (HPC) 103 % of control

COc1ccc(-c2cc(Cl)c([N+](=O)[O-])cc2[N+](=O)[O-])cc1
inactive: [22] 100 % of control | [17] 107 % of control | [18] 110 % of control | [19] 102 % of control

CC(=O)[O][Hg][c]1cc(C)c(O)c([N+](=O)[O-])c1
inactive: dose: 1.56 mg/kg/injection, schedule: Q04DX003 (ip), vehicle: Klucel (hydroxypropylcellulose) (HPC) 105 % of control | dose: 3.12 mg/kg/injection, schedule: Q01DX009 (ip), vehicle: Klucel (hydroxypropylcellulose) (HPC) 95 % of control | dose: 3.12 mg/kg/injection, schedule: Q04DX003 (ip), vehicle: Klucel (hydroxypropylcellulose) (HPC) 115 % of control | dose: 6.25 mg/kg/injection, schedule: Q01DX009 (ip), vehicle: Klucel (hydroxypropylcellulose) (HPC) 96 % of control | dose: 6.25 mg/kg/injection, schedule: Q04DX003 (ip), vehicle: Klucel (hydroxypropylcellulose) (HPC) 117 % of control | dose: 12.5 mg/kg/injection, schedule: Q04DX003 (ip), vehicle: Klucel (hydroxypropylcellulose) (HPC) 109 % of control

NS(=O)(=O)c1ccc(N=Cc2ccc3c(c2)OCO3)cc1
inactive: [1] 94 % of control | [2] 92 % of control | [3] 97 % of control

CC(C)(C)CN=C(N)N
inactive: dose: 100.0 mg/kg/injection, schedule: Q01DX001 (ip), vehicle: saline 96 % of control | dose: 200.0 mg/kg/injection, schedule: Q01DX001 (ip), vehicle: saline 94 % of control | dose: 400.0 mg/kg/injection, schedule: Q01DX001 (ip), vehicle: saline 102 % of control

CCOC(=O)/C(Cc1cc[n+]([O-])c2ccccc12)=N/O
inactive: [1] 91 % of control | [4] 92 % of control | [2] 97 % of control | [20] 90 % of control | [3] 100 % of control | [21] 100 % of control

C[Si](C)(CCl)O[Si](C)(C)CCl
inactive: [22] 113 % of control | [17] 97 % of control | [18] 106 % of control | [19] 97 % of control

N#CC=P(c1ccccc1)(c1ccccc1)c1ccccc1
inactive: dose: 50.0 mg/kg/injection, schedule: Q01DX009 (ip), vehicle: saline 87 % of control

COc1ccc(/C=C2/COC/C(=C/c3ccc(OC)c(OC)c3)C2=O)cc1OC
inactive: [8] 98 % of control | [9] 101 % of control | [10] 93 % of control | [11] 95 % of control | [12] 90 % of control | [13] 93 % of control

[Cl][Pd][Cl].[NH-]C(c1ccccc1)C([NH-])c1ccccc1 (stereo unspecified)
inactive: dose: 100.0 mg/kg/injection, schedule: Q04DX002 (ip), vehicle: Klucel (hydroxypropylcellulose) (HPC) 93 % of control and 97 % of control | dose: 200.0 mg/kg/injection, schedule: Q04DX002 (ip), vehicle: Klucel (hydroxypropylcellulose) (HPC) 90 % of control and 118 % of control | dose: 400.0 mg/kg/injection, schedule: Q04DX002 (ip), vehicle: Klucel (hydroxypropylcellulose) (HPC) 88 % of control and 97 % of control

COC(=O)C(CSCSC)NC(=O)Nc1ccc(F)cc1 (stereo unspecified)
inactive: dose: 50.0 mg/kg/injection, schedule: Q01DX009 (ip), vehicle: saline with Tween-80 98 % of control | [14] 93 % of control | [5] 95 % of control | [15] 94 % of control | [6] 93 % of control | [7] 95 % of control

O=C(O)c1cc(-c2ccc(Cl)cc2)nc2c(-c3ccccc3)cccc12
inactive: [5] 95 % of control | [6] 95 % of control | [7] 90 % of control

CCSC(SCC)C(OC(C)=O)C(OC(C)=O)C(OC(C)=O)C(C)OC(C)=O (stereo unspecified)
inactive: dose: 100.0 mg/kg/injection, schedule: Q01DX001 (ip), vehicle: saline with Tween-80 99 % of control | [14] 95 % of control and 89 % of control | dose: 100.0 mg/kg/injection, schedule: Q04DX002 (ip), vehicle: saline with Tween-80 93 % of control and 105 % of control | [5] 107 % of control | dose: 200.0 mg/kg/injection, schedule: Q01DX001 (ip), vehicle: saline with Tween-80 103 % of control | [15] 98 % of control and 100 % of control | dose: 200.0 mg/kg/injection, schedule: Q04DX002 (ip), vehicle: saline with Tween-80 94 % of control and 92 % of control | [6] 91 % of control | dose: 400.0 mg/kg/injection, schedule: Q01DX001 (ip), vehicle: saline with Tween-80 101 % of control | [16] 87 % of control and 88 % of control | dose: 400.0 mg/kg/injection, schedule: Q04DX002 (ip), vehicle: saline with Tween-80 100 % of control and 87 % of control | [7] 93 % of control

Source: PubChem BioAssay AID248 (DTP/NCI, 2004)
